In patent US7786088B2, “Targeting vector to the urokinase plasminogen activator receptor” (University of Iowa Research Foundation, priority 2000, dated 2010):

Key:
human airway epithelia [1] = experiment: fluid phase endocytosis, uptake of Texas Red dextran; type: cell-based; details: 0.15 μM peptide applied to apical surface, FIG. 4
Method: B. Assay for Fluid Phase Endocytosis: Cells were chilled on ice for 15 minutes and then incubated with […] uPA or 0.15 μM u7-peptide (SEQ ID NO:1) added to the apical surface for 30 minutes at 4° C. Following 3 washes in PBS, cells were incubated with 0.5 mg/ml Texas Red-labeled fixable dextran (3,000 MW, Molecular Probes, Eugene, Oreg.) for 10 minutes at 37° C. Following 3 washes in PBS, cells were fixed with 4% paraformaldehyde, mounted onto class slides with Vectashield (Vector Laboratories, Inc., Burlingame, Calif.), and viewed by fluorescence microscopy. Control cells were incubated with Texas Red-labeled dextran alone to measure basal levels of endocytosis. Monkey tracheal explants were assayed as described for primary cell cultures. To evaluate time-dependent changes, cells were treated as described above with uPA (50 nM) followed by incubations in Texas Red dextran for 5, 10, 30 or 60 minutes at 37° C. […]
B. Effect of uPA on Fluid Phase Endocytosis in Human Airway Epithelia: Stimulation of endocytosis by uPA was determined by measuring the uptake of Texas Red-conjugated dextran, a fluid phase marker. […]

human airway epithelia [2] = experiment: gene transfer by adenovirus:CaPi coprecipitate (β-galactosidase activity); type: cell-based
Method: B. Evaluation of Gene Transfer: The apical surface of human airway epithelia was washed once with PBS. Adenovirus was applied at a multiplicity of infection (MOI) of 50 to the apical surface for 30 minutes at 37° C. Adenovirus was applied either alone or in a CaPi coprecipitate as previously described by Fasbender et al., J. Clin. Invest. 102:184-193 (1998) and Lee et al., Hum. Gene Ther. 10:603-13 (1999) (incorporated herein by reference). Following 3 washes, cells were returned to the incubator and assayed for gene transfer 48 hours later. AAV2 was applied at an MOI<1 to the apical surface for 30 minutes at 37° C. AAV2 was applied either alone or on a CaPi coprecipitate formed as previously described by Fasbender et al. and Lee et al. for adenovirus. Following 3 washes, cells were returned to the incubator and assayed for gene transfer 14 days later. Total β-galactosidase activity was measured using a commercially available technique (Galacto-Light, Topix, Bedford, Mass.).

human airway epithelia [3] = experiment: tight junction integrity measured by transepithelial resistance; details: following uPA or u7 treatment
Method: D. uPA Enhancement of Gene Transfer: The ability of uPA to enhance gene transfer by nonspecifically bound vector was tested.

CF airway epithelia = experiment: cAMP-stimulated short-circuit current after Ad2/CFTR-16:CaPi gene transfer; type: cell-based, human; details: FIG. 5C; for correction of Cl− channel defect (cAMP-stimulated current): CF airway epithelia, Ad2/CFTR-16 in CaPi coprecipitate
Method: C. Measurement of Transepithelial Electrical Properties: Epithelia were mounted in modified Ussing chambers (Jim's Instruments, Iowa City, Iowa) and bathed with Ringer's solution on their submucosal side (135 mM NaCl, 2.4 K2HPO4, 0.6 mM […], 1.2 mM CaCl2, 1.2 mM MgCl2, 5 mM Hepes, pH 7.4 and 10 mM dextrose). The mucosal surface was bathed in the identical solution, except that 135 mM NaGluconate replaced the 135 mM NaCl. In this way, a transepithelial Cl^− concentration gradient was established in order to magnify changes in Cl^− transport. The transepithelial Na^+ transport was blocked with mucosal amiloride (10 μM). Mucosal DIDS (100 μM) blocked non-CFTR Cl^− transport. The cAMP agonists, forskolin (10 μM) and IBMX (100 μM) were applied to both solutions to stimulate transepithelial Cl^− transport via CFTR.
The ability of uPA to enhance gene transfer and expression of CFTR in differentiated CF airway epithelia was also tested.

Substance	stimulation of fluid phase endocytosis (human airway epithelia [1])	increase in gene transfer compared to the coprecipitate alone (human airway epithelia [2]; apical application before CaPi:adenovirus coprecipitates (uPA 50 nM), assayed 48 hours later, FIG. 5A)	effect on gene transfer by CaPi coprecipitate (in words) (human airway epithelia [2]; compared with uPA)	transepithelial resistance (human airway epithelia [3])	correction of Cl− channel defect (cAMP-stimulated current) (CF airway epithelia)	correction of Cl− channel defect (cAMP-stimulated current) (CF airway epithelia; listed as u7 peptide)	uptake of a vector expressing CFTR (CF airway epithelia; cystic fibrosis (CF) airway epithelia)
CTCGNCL [scrambled peptide, reference compound]	did not	–	–	–	–	–	–
CLNGGTC (listed as Homo sapiens) [u7-peptide, seven residue peptide comprising amino acids 13-19 of uPA]	stimulated fluid phase endocytosis	8-10 fold	effect similar to uPA	did not change	further enhanced the correction	to a greater extent than the full length uPA	enhanced the uptake
